As usually defined, the melting point is the temperature, or range, at which the solid turns liquid.

Turning to `Nc1ccc2ccc(Oc3ccccc3)nc2n1`, the melting point came out at 196 °C. The figure for `CCCCCCCCCCCCCCCCCCOC(=O)c1ccc(C)c(N)c1` is 79 °C; for `O=C1C(=Cc2ccncc2)CCc2ccccc21` it is 112 to 114 °C; for `Cc1cc2[nH]c(=O)n(C3CCN(CCCN(c4ccc(F)cc4)c4ccc(F)cc4)CC3)c2cc1C` it is 219 to 220 °C. As for `COC1CC(N)C(O)C(C)O1` (centres undefined), the melting point came out at 130 °C. The figure for `CCCn1nc(-c2ccc(O)c(F)c2)c2cccc(-c3ccccc3)c21` is 177 to 178 °C. For `Cn1cc2c(n1)c(N)nc1ccccc12`, the melting point fell in the range of 218 to 219 °C.

Turning to `CN1CCC23c4c5ccc(O)c4OC2C(=NO)CCC3(O)C1C5` (centres undefined), the melting point is 270 to 271 °C. In turn, `C[C@H]1[C@H](N(C)C)CN1c1cc2c(cc1F)c(=O)c(C(=O)O)cn2C1CC1` (relative stereo) returned a melting point of 181 to 185 °C.

Regarding `O=C1C=C(O)CC(c2ccc3sccc3c2)C1` (centres undefined), the melting point was determined as 192 °C. The figure for `CC(=O)C(C)C(=O)N(c1ccc(Cl)cc1)C(C)C` (centres undefined) is 77 to 79 °C. On to `O=C(CC1=C(n2nc(-c3c(-c4ccccc4)nn4ccccc34)ccc2=O)CCCC1)N1CCSCC1`, for which the melting point lay in the range of 180 to 182 °C.

On to `CCCCCCCNC(=O)Oc1ccc2c(c1)N(Cc1ccccc1)CCC2`, for which the melting point was found to be 50 °C. In turn, `Clc1ccccc1C(c1ccc(-c2ccccc2)cc1)n1ccnc1` (centres undefined) came in with a melting point of 90 °C. Regarding `CCOC(=O)C1=C(C)NC(SCc2ccc(OC)cc2)=NC1c1cccc(Cl)c1Cl` (centres undefined), the melting point fell in the range of 134 to 135 °C. Turning to `Cc1ccc(NCCOS(C)(=O)=O)c([N+](=O)[O-])c1`, the melting point lay in the range of 65 to 67 °C.

`CCOC(=O)N1CCC(c2[nH]nc3c2C(=O)c2c(NC(=O)NN4CCOCC4)cccc2-3)CC1` gave a melting point of 206 to 207 °C.

With `CCCCCCCCCCCCCCCC(CC)OCC(=O)c1ccccc1` (centres undefined), the melting point was in the range of 50 to 52 °C. The figure for `COCCOc1ccc(CC(OC)C(=O)O)c(Oc2ncc(C(F)(F)F)cc2Cl)c1` (centres undefined) is 93 to 96 °C; for `CC1OC1COc1ccc(C(=O)OC(C)(C)C)cc1` (centres undefined) it is 47 to 48 °C; for `CC(C)(C)OC(=O)Nc1ccc(-c2ccc(F)cc2)cc1NC(=O)CC(=O)c1cccc(C#N)c1` it is 177 to 179 °C. The figure for `COc1ccc(NC(=O)c2ccc([N+](=O)[O-])cc2N)cc1` is 193 to 197 °C; for `Cc1ccc(-c2ccc(S(=O)(=O)Nc3onc(C)c3Br)s2)cc1` it is 175 °C. The figure for `CN1C(=O)C(Br)=C(c2cn(C(=O)OC(C)(C)C)c3ccc(OCc4ccccc4)cc23)C1=O` is 155 °C; for `CC1=C(O)C(=O)C(C)(CC2(O)C=CC=CC2)O1` (centres undefined) it is 122 to 124 °C. In turn, `COc1ccc(CNC(=O)C(=O)NCCc2cccs2)c(OC)c1` had a melting point of 146 to 147 °C. Molecule `Nc1ncnc2c1c(-c1ccccc1)cn2-c1cccc(C(=O)NCCO)c1` had a melting point of 194 to 198 °C. `CC(C)c1cccc(-c2ccc(F)cc2)c1OCCOc1ccc(C(=O)C(=O)O)cc1` registered a melting point of 123 to 125 °C. Then `CS(=O)(=O)NCC(=O)N1CCC(C2c3ncc(Br)cc3CCc3cc(Cl)cc(Cl)c32)CC1` (single isomer, unassigned; (+)), with 120 to 140 °C; and `CC(C)C(SC(=O)c1ccccc1)C(=O)NCC(=O)O` (centres undefined), with 136 to 137 °C.

`CNC(=O)N(Cc1ccc(OCCc2nc(-c3ccccc3)oc2C)cc1)OC(=O)OC` came in with a melting point of 134 to 135 °C. Then `CC(=O)OCC1OC(n2cc(C3=C(c4cn(C(=O)OC(C)(C)C)c5ccccc45)C(=O)N(C)C3=O)c3cccnc32)C(OC(C)=O)C(OC(C)=O)C1OC(C)=O` (centres undefined), with 89 to 91 °C; and `COC(=O)/C=C/c1ccc(/C=C/c2csc(NC(C)=O)n2)s1`, with 200 to 202 °C. The figure for `CN(c1cccc2cc(-c3ncc(C(=O)O)s3)[nH]c12)S(=O)(=O)c1cccs1` is 258 to 260 °C; for `CSc1ncc(C)c(=O)[nH]1` it is 238 to 239 °C; for `CCCc1nc(NC(C)=O)nc(N2CCOCC2)n1` it is 141 to 142 °C.

For `CSc1ccc(C2=C(Cl)C(=O)OC2)cc1`, the melting point fell in the range of 156 to 158 °C. Then `COc1cc(NCCN(C)Cc2ccccc2)ccc1C(N)=O`, with 153 to 155 °C. The figure for `CC1Cc2c(c3cccnc3n(-c3cccc(C(F)(F)F)c3)c2=O)O1` (centres undefined) is 205 to 207 °C; for `COc1ccc([N+](=O)[O-])cc1C(O)OC` (centres undefined) it is 147 to 148 °C.

Turning to `CSC(=NNCCCCc1ncc(Br)cc1C)NC#N`, the melting point lay within 127 to 128 °C. The figure for `CCOC(=O)c1ccc(NC(=O)CCc2ccc(Cl)cc2)cc1` is 163 to 165 °C; for `CC(=N)NC(=O)Nc1ccccc1` it is 204 to 206 °C; for `NC(=O)c1[nH]c2cccnc2c1Sc1ccccc1` it is 251 °C. As for `CC(C)(C)[C@H]1CC[C@H](CC2=C(O)C(=O)c3ccccc3C2=O)CC1`, the melting point lay within 180 to 182 °C. With `N#Cc1cc(F)c(F)c(Br)c1Cl`, the melting point lay in the range of 71 to 72.5 °C. For `O=C(C1CC1)N1CC[C@@H](Oc2ccc(F)cc2)[C@H](c2ccccc2)C1` (relative stereo), the melting point lay within 113 to 115 °C. With `O=C(c1cc(Br)cc(Br)c1O)c1cc(Br)cc(Br)c1O`, the melting point was 179 °C. The figure for `O=C(NC1CCN(CCC(O)C(=O)C(O)CCN2CCC(NC(=O)c3ccccc3)CC2)CC1)c1ccccc1` (centres undefined) is 154 to 155 °C; for `CCc1n[nH]c(=O)n1N` it is 171 °C; for `Cc1ccc2c(Cc3nc4c(F)c(F)cc(F)c4s3)cn(CC(=O)O)c2c1` it is 211 to 213 °C. The figure for `CCn1c(=O)c(=O)[nH]c2cccc(C)c21` is > 300 °C; for `OCC1OC(n2cnc3c(Nc4ccccc4)ccnc32)C(O)C1O` (centres undefined) it is 189 °C; for `CC(C)NCC(O)Cc1ccc([N+](=O)[O-])c(C2OCCO2)c1` (centres undefined) it is 97 to 99 °C. Then `Nc1c2c(cc3c1CCC3)CCC2`, with 94.5 to 96.6 °C; and `O=C(O)c1ccc2c(c1)S(=O)(=O)c1cc(C(=O)O)ccc1O2`, with 399 to 401 °C. `CC(C)CC(=O)N[C@@H](Cc1ccccc1)C(=O)CSCc1ccco1` came in with a melting point of 94 to 95 °C. Molecule `CCCCC[C@H]1CC[C@H](c2nc(Cl)c(OC)c(Cl)n2)CC1` came in with a melting point of 29.5 to 30.4 °C. The figure for `COc1ccc(Cn2nnnc2C(=O)Nc2cccc(N3CCCCC3)c2C#N)cc1` is 166 to 168 °C; for `O=S1(=O)NC2CCCN2c2ccc(Oc3ccc(Cc4nnn[nH]4)cc3)cc21` (centres undefined) it is 209 to 212 °C; for `Nc1nc2ccccc2c2c1ncn2CCCCNC(=O)c1cccc(C(=O)c2ccccc2)c1` it is 103 to 105 °C. As for `NC(=O)Cc1nc2ccnc(-c3cccc(C(F)(F)F)c3)n2n1`, the melting point was in the range of 218 to 220 °C. In turn, `Cc1oncc1C(=O)N1CCN(c2ccc(NC(=O)c3cnn(-c4ccc(F)cc4)c3C)cc2C#N)CC1` showed a melting point of 208 °C. The figure for `CCN(CC)CCNc1ccc(C)c2sc3ccc(OC)cc3c(=O)c12` is 81 to 82 °C; for `COc1ccc(-c2nc(N)ncc2-c2ccc(=O)n(C)n2)cc1` it is 259 °C. Then `O=C(Oc1ccc(Cl)c(OCC2CC2(Cl)Cl)c1)N1CCCC1` (centres undefined), with 72 to 74 °C; and `COc1ccc(COC(=O)c2ccc3ccccc3c2O)cc1`, with 92 to 93 °C; and `CN(C)c1nc2cc(NC(=O)c3c(C(=O)O)cnn3C)ccn2n1`, with > 250 °C. For `CC(C)CNC(=O)C=Cc1ccc(OCc2ccccc2)c([N+](=O)[O-])c1`, the melting point is 166 to 167 °C.

For the molecule `O=[N+]([O-])c1cc(F)c(Cl)c(Br)c1Cl`, the melting point lay within 51 to 53.5 °C. With `Cc1cc(O)c(C)c(O)c1C#N`, the melting point lay within 162 to 163 °C. The figure for `Cc1cc(C)cc(S(=O)(=O)n2c(COC(C)(C)C(=O)O)cc3nc(Cl)ccc32)c1` is 154 °C; for `c1ccc(-c2cn[nH]c2)nc1` it is 136 °C. As to `COc1cc2c(cc1OC)C1=NCCN1C(/C=C(\O)c1cccnc1)=N2`, the melting point is 275 °C. Then `Cn1nnnc1CC(=O)c1cc(F)c(Cl)cc1N`, with 180 to 184 °C; and `CCNC(=O)C1OC(n2cnc3c(NC(=O)Nc4ccc(S(=O)(=O)N5CCCCC5)cc4)ncnc32)C(O)C1O` (centres undefined), with 176 to 178 °C; and `CC(=O)N=C(OC(C)=O)N1CCSC1c1ccccc1OCCN1CCN(c2ccccc2)CC1` (centres undefined), with 120 to 124 °C. Then `O=C(Cl)c1ccc(C#Cc2ccccc2F)o1`, with 96 to 98 °C. Then `Cc1c(NC(=O)c2ccc(OCc3ccccc3F)cc2)ccc2cc(CN3CCCC3)cnc12`, with 104 to 105 °C.

With `CC(C)(C)OC(=O)N[C@@H](CCCCN=C=O)C(=O)N1CC(F)(F)C(F)(F)C1`, the melting point lay within 68 to 70 °C. Then `N#CC(=C1Nc2ccccc2O1)S(=O)(=O)c1ccccc1`, with 215 to 218 °C; and `CC(=O)C1CCC2C3CCC4CC=CCC4(C)C3C(N)CC12C` (centres undefined), with 127 to 129 °C. The figure for `COC(=O)CC(C#Cc1cccc(-c2noc(C)n2)c1)c1ccc(OC)c(OC2CCCC2)c1` (racemic) is 66 to 68 °C. The figure for `CCOC(=O)C(Cc1c(Br)c(OC)c(OC)c(OC)c1OC)(C(=O)OCC)c1ccc(OCc2ccccc2)cc1` is 93 to 94 °C; for `COc1ccc(S(=O)(=O)C(CCCc2ccccc2)(CCCc2ccccc2)C(=O)NO)cc1` it is 118 to 120 °C. `Cc1cc(CC(=O)O)sc1C(=O)c1ccccc1` registered a melting point of 86 °C. For `COc1cc2c(cc1C)CCC2c1cnc[nH]1` (centres undefined), the melting point was in the range of 68 to 70 °C. Then `CCCCCCCCCCCCCCCc1cc(OCC(COC(=O)NCCCCCn2cnnn2)Oc2cc(C)on2)no1` (racemic), with 82 to 84 °C; and `CS(=O)c1ccc(-c2nn(Cc3ccc(Cl)cc3Cl)c(=O)cc2-c2ccc(Cl)cc2)cc1` (centres undefined), with 236 to 237 °C.
